{
  "source": "paper PMC6837341",
  "about": "“Evolutionarily conserved susceptibility of the mitochondrial respiratory chain to SDHI pesticides and its consequence on the impact of SDHIs on human cultured cells” (PLoS ONE, 2019)",
  "molecular_target": "succinate cytochrome c reductase (SDH+CIII) (Homo sapiens, UniProt O14521+P21912+Q99643)",
  "sequence (P21912 29-280)": "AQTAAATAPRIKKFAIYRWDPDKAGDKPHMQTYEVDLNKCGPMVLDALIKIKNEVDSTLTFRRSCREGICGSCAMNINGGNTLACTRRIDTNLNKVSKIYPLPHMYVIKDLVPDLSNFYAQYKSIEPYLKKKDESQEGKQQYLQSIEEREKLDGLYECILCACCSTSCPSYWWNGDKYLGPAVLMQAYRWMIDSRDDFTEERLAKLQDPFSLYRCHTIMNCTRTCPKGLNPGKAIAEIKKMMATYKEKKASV",
  "sequence (Q99643 30-169)": "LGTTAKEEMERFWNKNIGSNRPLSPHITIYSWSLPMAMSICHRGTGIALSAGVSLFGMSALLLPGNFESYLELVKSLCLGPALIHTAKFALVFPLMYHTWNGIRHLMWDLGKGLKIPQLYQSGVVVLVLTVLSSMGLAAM",
  "sequence (O14521 57-159)": "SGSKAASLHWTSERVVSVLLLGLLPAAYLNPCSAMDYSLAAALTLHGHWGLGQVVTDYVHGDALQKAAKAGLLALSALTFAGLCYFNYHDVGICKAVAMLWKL",
  "sequence (P31040 43-664 partner)": "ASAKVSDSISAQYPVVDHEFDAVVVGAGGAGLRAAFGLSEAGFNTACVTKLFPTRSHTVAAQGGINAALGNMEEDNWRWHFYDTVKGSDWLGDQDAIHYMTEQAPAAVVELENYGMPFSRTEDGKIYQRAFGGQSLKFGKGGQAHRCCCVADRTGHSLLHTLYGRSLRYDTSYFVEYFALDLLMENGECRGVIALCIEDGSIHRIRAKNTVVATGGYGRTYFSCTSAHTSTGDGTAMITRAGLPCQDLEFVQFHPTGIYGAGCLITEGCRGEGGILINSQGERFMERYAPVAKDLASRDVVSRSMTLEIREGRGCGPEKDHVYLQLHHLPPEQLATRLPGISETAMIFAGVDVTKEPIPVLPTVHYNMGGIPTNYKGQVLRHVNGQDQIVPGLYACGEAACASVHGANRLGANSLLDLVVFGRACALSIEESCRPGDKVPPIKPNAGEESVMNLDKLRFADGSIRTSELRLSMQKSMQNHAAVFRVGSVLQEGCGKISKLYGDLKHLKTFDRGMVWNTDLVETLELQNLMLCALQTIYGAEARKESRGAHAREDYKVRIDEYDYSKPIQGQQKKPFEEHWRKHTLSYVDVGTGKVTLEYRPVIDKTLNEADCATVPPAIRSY",
  "assay": "Malonate-sensitive SCCR activity in fibroblasts grown in the presence of bixafen",
  "format": "cell-based",
  "conditions": "cells grown in glucose medium with 20 μM bixafen, measured after repeated washing",
  "protocol": "To test SDHIs on growing skin fibroblasts, cells trypsinized from a confluent 75-cm^2 flask culture were seeded in 4×75-cm^2 flasks (20–25% confluency) containing GlucoMax medium (S1 Table). After allowing the culture to stand for one night, the medium was changed to the desired conditions, i.e., GlucoMax medium or MitoMax medium (S1 Table), supplemented with the chosen amount of SDHI (control conditions compensated for DMSO used to solubilize SDHI; 14 mM max). The number of cells was estimated from random images using the ImageJ processing program for 15–20 days without changing the medium (one unique exposure to SDHI).\nRC enzyme activities were spectrophotometrically measured using a pseudo-double-wavelength spectrophotometer (Cary 60, Agilent). […] With this aim, we measured the malonate-sensitive succinate cytochrome c reductase (SDH+CIII), glycerol-3-phosphate cytochrome c reductase (G3PDH+CIII) and antimycin-sensitive quinol cytochrome c reductase (CIII) as previously described.\nGiven the substantial effect of SDHIs on the activity of human SDH, we next assessed the effects of these compounds on the viability of human cells in culture (primary skin fibroblasts) (Figs 3, 4 and 5). […]",
  "data": [
    {"compound": "Cn1cc(C(=O)Nc2ccc(F)cc2-c2ccc(Cl)c(Cl)c2)c(C(F)F)n1", "note": "[Bixafen, bixafen]", "values": [
      {"measurement": "Inhibition of malonate-sensitive SCCR activity in cells", "result": 80, "unit": "%"}
    ]}
  ]
}
